Results: patent US20090099060A1, “Modulation of line-1 reverse transcriptase” (priority 2004, published 2009)
“Also recorded” adds a separate entry of the source.

Key:
[1] = tested on: U-2 OS/ras-V12 s.c. tumors; assay: s.c. tumor growth from U-2 OS/ras-V12 cells in nude mice, AZT in drinking water; assay type: in vivo; settings: AZT 2 mg/ml in drinking water from day zero
Description: Exemplary in vivo assays of anti-tumor efficacy of AZT using nude mice subcutaneous (s.c.) tumors grown from the U-2 OS human osteosarcoma cell lines (i.e., xenografts bearing mice) as models are described below.
Human cancerous cells needed for in vivo assays may be prepared, for example, as follows: Telomerase-negative, but ALT positive, U-2 OS human osteosarcoma cell lines are obtained from public sources such as ATCC. Cells are maintained in McCoy 5 media supplemented with 10% fetal calf serum at 37° C. in a humidified atmosphere of 5% CO2. […] Accordingly, activated ras-oncogene expression vector is introduced in near-confluent U-2 OS cells by Lipofectamine 2000% transfection according manufacturer's instructions. One day before transfection U-2 Os cells are seeded at a density 1×10^5 cells in a 6 well-plate. Plasmid pBABE-puro-ras-V12 (available publicly) is linearized by restriction digest with Sca I enzyme. The cells are transfected with the linearized construct and grown in culture. One day after the transfection, cells may be diluted. Then the cells are selected with puromycin ([…]) for 8 days. […]
In one embodiment, impairment of s.c. tumor growth or time to progression rather than decrease in size of an established tumor is assessed. […] Tumors are measured every 2-3 days. […] Tumor volume is calculated with formula 4/3πr^3, where r is the radius of the tumor.

[2] = tested on: Saos-2 cells; assay: Telomere length (PNA probe) and cell cycle (PI) by flow cytometry in AZT-treated Saos-2 cells; assay type: cell-based, human; settings: Saos-2, AZT 0.2 μM, 14 days
Method: (§1) Telomere length in AZT treated and untreated cell lines was measured by flow cytometry with a telomere-specific peptide nucleic acid (PNA) probe^22,23. To determine cell cycle distribution, cells were stained with propidium iodide (PI)^22. […] AZT at the chosen concentration had no effect on telomere length or cell cycle distribution in the HeLa cells (not shown).
(§2) Cell lines: All cell lines used in this study were obtained from American Type Culture Collection (Rockville, Md.). The cells origins included osteosarcoma (Saos-2 and U-2 OS), liver ([…]) and uterine cervix (HeLa). Cells were cultured following ATCC recommendation. For treatment of the cells with AZT, the media was supplemented with 0.2 μM of 3′-azido-2′,3′-dideoxythymidine (Sigma)^28.
(§3) Telomere length measurement by flow cytometry: Cell were stained with telomere specific FITC conjugated (C3TA2)3 PNA (Applied Biosystems) probe and contrastained with 0.06 μg/ml PI as described^21.

[3] = tested on: U-2 OS cells; assay: Bromodeoxyuridine (BdU) incorporation, rate of DNA synthesis in AZT-treated U-2 OS cells; assay type: cell-based, human; settings: AZT for 10, 17 and 40 days
Method: Rate of DNA synthesis was determined by incorporation of 5-bromodeoxyuridine (BdU)^24.
as §2
Bromodeoxyuridine incorporation: Cell staining, for BdU incorporation, was performed using cells which were incubated with […] BrdU (Sigma) for 2.5 h, stained with BU-33 anti-BrdU monoclonal antibodies (Sigma) and FITC labeled Alexa 488 goat anti-mouse IgG (H+ L) (Fab′) fragments (Molecular Probes), contrastained with 50 μg/ml PI (Sigma) and analyzed by flow cytometry as described^24.

[4] = tested on: U-2 OS cells; assay: Telomere length (PNA probe) and cell cycle (PI) by flow cytometry in nucleoside-analog-treated U-2 OS cells; assay type: cell-based, human
Method: as §1
Telomere length in untreated (FIG. 4a) and GCV treated cells (FIG. 4b) was measured by flow cytometry with a telomere-specific PNA probe as described above.
To determine cell cycle distribution, cells were stained with propidium iodide (PI).
as §2, §3

[5] = tested on: telomerase-positive tumors (WM1175 malignant melanoma or HUT292DM lung cancer); assay: Telomerase-positive tumors (WM1175 or HUT292DM cells) in immunodeficient mice treated with AZT; assay type: in vivo; settings: AZT at the dose used for inhibiting the growth of the ALT cancer cells
Method: After induction of the tumors, mice in the experimental groups may be treated with AZT. Mice may be injected i.p. twice a day with solution of AZT in PBS with a total daily dose of 10 mg/kg. Mice in the control group may be injected with PBS. Alternatively, AZT at the same daily dose may be given in drinking water. […] As a separate set of controls, telomerase-positive tumors in nude mouse may be induced by injecting the immunodeficient mice with WM1175 (malignant melanoma) or HUT292DM (lung cancer) cells instead of the transformed IIICF/c fibroblast cells.

[6] = tested on: HeLa cells; assay: Telomere length and cell cycle by flow cytometry in AZT-treated telomerase-positive HeLa cells; assay type: cell-based, human; settings: AZT under the same conditions
Method: as §1, §2, §3

[7] = U-2 OS, GCV 0.3 μg/ml, 14 days, listed as ganciclovir

Structure (SMILES): Cc1cn([C@H]2C[C@H](N=[N+]=[N-])[C@@H](CO)O2)c(=O)[nH]c1=O [AZT, 3′-azido-2′,3′-dideoxythymidine]
- tumor development [1]: remain tumor free
- apoptosis [2]: massive apoptosis
- cell cycle distribution (PI) [2]: G2 arrest; also recorded: changes in cell cycle
- telomere length (telomere-specific PNA fluorescence) [2]: telomere shortening; also recorded: decrease in telomere length
- rate of DNA synthesis (BdU incorporation) [3]: decrease in DNA synthesis
- DNA content (PI staining) compared to untreated cells ([4]; AZT treated cells at later stages of treatment): higher DNA content
- treatment time after which changes in cell cycle distribution, DNA synthesis and telomere length could be detected ([4]; U-2 OS, AZT): 10 days
- apoptosis ([4]; U-2 OS, AZT 0.2 μM, 14 days): massive apoptosis
- cell cycle distribution (PI) ([4]; U-2 OS, AZT 0.2 μM, 14 days): G2 arrest; also recorded: changes in cell cycle
- telomere length (telomere-specific PNA fluorescence) ([4]; U-2 OS, AZT 0.2 μM, 14 days): telomere shortening; also recorded: decrease in telomere length
- telomere length over time of treatment ([4]; U-2 OS, AZT for 10, 17 and 40 days): progressive telomere shortening
- inhibition of telomerase-positive tumors [5]: cannot be inhibited
- cell cycle distribution [6]: no effect
- telomere length [6]: no effect

Structure (SMILES): Nc1nc(O)c2ncn(COC(CO)CO)c2n1 [GCV, ganciclovir]
- apoptosis ([4]; U-2 OS, GCV 0.3 μg/ml, 14 days): massive apoptosis
- cell cycle distribution (PI) ([4]; U-2 OS, GCV 0.3 μg/ml, 14 days): G2 arrest
- telomere length (telomere-specific PNA probe) ([4]; U-2 OS, GCV 0.3 μg/ml, 14 days): telomere shortening
- cell cycle distribution (PI) [4, 7]: changes in cell cycle
- telomere length (telomere-specific PNA probe) [4, 7]: decrease in telomere length
